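The compound was tested at five concentrations on cells cultured in 96-well plates, with a 48-hour exposure period. At the GI50, growth is halved.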 The source made the active and inactive calls. Rule as the data show it: active = GI50 up to about 1.1 µM and inactive = higher.
Key:
Experiment in all cases: NCI-60 cell line screen, 48 h
[1] = system: MOLT-4
[2] = system: SK-OV-3
[3] = system: SN12C
[4] = system: NCI-H23
[5] = system: M14
[6] = system: OVCAR-3
[7] = system: UACC-257
[8] = system: RPMI-8226
[9] = system: SW-620
[10] = system: MDA-MB-435
[11] = system: SK-MEL-28
[12] = system: IGROV-1
[13] = system: NCI-H226
[14] = system: DU-145
[15] = system: SR
[16] = system: TK-10
[17] = system: MDA-N
[18] = system: HL-60
[19] = system: HCC 2998
[20] = system: CAKI-1

Nc1nc(Nc2ccccc2)sc1C(=O)c1ccco1
GI50 [1]: 13 µM (inactive) | GI50 [2]: 28.6 µM (inactive) | GI50 [3]: 17.7 µM (inactive) | GI50 [4]: 14.6 µM (inactive) | GI50 [5]: 20.9 µM (inactive) | GI50 [6]: 5.69 µM (inactive) | GI50 [7]: 30.8 µM (inactive) | GI50 [8]: 16.1 µM (inactive) | GI50 [9]: 21.2 µM (inactive) | GI50 [10]: 16.4 µM (inactive) | GI50 [11]: 32.8 µM (inactive) | GI50 [12]: 15.6 µM (inactive) | GI50 [13]: 21.3 µM (inactive) | GI50 [14]: 14.7 µM (inactive) | GI50 [15]: 5.97 µM (inactive) | GI50 [16]: 14.2 µM (inactive) | GI50 [17]: 17.2 µM (inactive) | GI50 [18]: 14.1 µM (inactive)

Cc1ccc(/N=N/N(C)C(C)C(O)Cc2ccccc2)cc1 (stereo not given)
GI50 [1]: 33.7 µM (inactive) | GI50 [19]: 53.3 µM (inactive) | GI50 [2]: > 100 µM (inactive) | GI50 [3]: 27.9 µM (inactive) | GI50 [4]: 50.9 µM (inactive) | GI50 [5]: 95.7 µM (inactive) | GI50 [6]: 84.3 µM (inactive) | GI50 [7]: 84.9 µM (inactive) | GI50 [8]: 12.4 µM (inactive) | GI50 [9]: 64.9 µM (inactive) | GI50 [10]: 35.9 µM (inactive) | GI50 [11]: 65.8 µM (inactive) | GI50 [12]: 29.2 µM (inactive) | GI50 [13]: > 100 µM (inactive) | GI50 [14]: 52.1 µM (inactive) | GI50 [16]: 29 µM (inactive) | GI50 [20]: 93.8 µM (inactive) | GI50 [17]: 23.7 µM (inactive) | GI50 [18]: 33.8 µM (inactive)

COC1C(O)=C2C(=O)OC(C)(O)/C=C/C=C\C=C/C=C/C(c3ccccc3)NC(=O)/C=C/C=C/C=C/C=C/C2(C)C1O (stereo not given)
GI50 [1]: 0.0102 µM (active) | GI50 [19]: 0.0122 µM (active) | GI50 [2]: 0.0253 µM (active) | GI50 [3]: 0.0142 µM (active) | GI50 [4]: 0.0158 µM (active) | GI50 [5]: 0.0792 µM (active) | GI50 [6]: 0.0445 µM (active) | GI50 [7]: 0.0363 µM (active) | GI50 [8]: 0.0111 µM (active) | GI50 [9]: 0.00139 µM (active) | GI50 [10]: 0.0193 µM (active) | GI50 [11]: 0.0461 µM (active) | GI50 [12]: 0.0165 µM (active) | GI50 [13]: 0.00646 µM (active) | GI50 [14]: 0.00533 µM (active) | GI50 [16]: 0.00871 µM (active) | GI50 [20]: 0.0175 µM (active) | GI50 [17]: 0.0275 µM (active) | GI50 [18]: 0.00348 µM (active)

CCOC(=O)Nc1c(C#N)[n+]([O-])c2cc(Cl)c(Cl)cc2[n+]1[O-]
GI50 [1]: 8.71 µM (inactive) | GI50 [2]: 24.2 µM (inactive) | GI50 [3]: 16.4 µM (inactive) | GI50 [4]: 19.7 µM (inactive) | GI50 [5]: 16.9 µM (inactive) | GI50 [6]: 20.1 µM (inactive) | GI50 [7]: 16.5 µM (inactive) | GI50 [8]: 2.15 µM (inactive) | GI50 [9]: 13.1 µM (inactive) | GI50 [10]: 16.4 µM (inactive) | GI50 [11]: 14.6 µM (inactive) | GI50 [12]: 13.1 µM (inactive) | GI50 [13]: 15.7 µM (inactive) | GI50 [14]: 32.5 µM (inactive) | GI50 [15]: 4.09 µM (inactive) | GI50 [16]: 27.5 µM (inactive) | GI50 [20]: 19.4 µM (inactive) | GI50 [17]: 16.1 µM (inactive)

COC(=O)C1CCC(=S)N1C(C)=O (stereo not given)
GI50 [1]: > 100 µM (inactive) | GI50 [19]: > 100 µM (inactive) | GI50 [2]: > 100 µM (inactive) | GI50 [4]: > 100 µM (inactive) | GI50 [5]: > 100 µM (inactive) | GI50 [6]: > 100 µM (inactive) | GI50 [7]: > 100 µM (inactive) | GI50 [8]: > 100 µM (inactive) | GI50 [9]: > 100 µM (inactive) | GI50 [10]: > 100 µM (inactive) | GI50 [11]: > 100 µM (inactive) | GI50 [12]: > 100 µM (inactive) | GI50 [14]: > 100 µM (inactive) | GI50 [16]: > 100 µM (inactive) | GI50 [20]: > 100 µM (inactive) | GI50 [17]: > 100 µM (inactive)

CC(CS(=O)(=O)Cc1ccccc1)C(N)=O (stereo not given)
GI50 [1]: > 100 µM (inactive) | GI50 [2]: > 100 µM (inactive) | GI50 [3]: > 100 µM (inactive) | GI50 [4]: > 100 µM (inactive) | GI50 [5]: > 100 µM (inactive) | GI50 [6]: > 100 µM (inactive) | GI50 [7]: > 100 µM (inactive) | GI50 [8]: > 100 µM (inactive) | GI50 [9]: > 100 µM (inactive) | GI50 [10]: > 100 µM (inactive) | GI50 [11]: > 100 µM (inactive) | GI50 [12]: > 100 µM (inactive) | GI50 [13]: > 100 µM (inactive) | GI50 [14]: > 100 µM (inactive) | GI50 [15]: > 100 µM (inactive) | GI50 [16]: > 100 µM (inactive) | GI50 [20]: > 100 µM (inactive) | GI50 [17]: > 100 µM (inactive) | GI50 [18]: > 100 µM (inactive)

C#CCn1c(=O)c2ccccc2n(CC#C)c1=O
GI50 [1]: > 10 µM (inactive) | GI50 [19]: > 10 µM (inactive) | GI50 [2]: > 10 µM (inactive) | GI50 [3]: > 10 µM (inactive) | GI50 [4]: > 10 µM (inactive) | GI50 [5]: > 10 µM (inactive) | GI50 [6]: > 10 µM (inactive) | GI50 [7]: > 10 µM (inactive) | GI50 [8]: > 10 µM (inactive) | GI50 [9]: > 10 µM (inactive) | GI50 [10]: > 10 µM (inactive) | GI50 [11]: > 10 µM (inactive) | GI50 [12]: > 10 µM (inactive) | GI50 [13]: > 10 µM (inactive) | GI50 [14]: > 10 µM (inactive) | GI50 [16]: > 10 µM (inactive) | GI50 [20]: > 10 µM (inactive) | GI50 [17]: > 10 µM (inactive)

CC(=O)OC1CC2CCC1(C)C2(C)C (stereo not given)
GI50 [1]: > 100 µM (inactive) | GI50 [19]: > 100 µM (inactive) | GI50 [2]: > 100 µM (inactive) | GI50 [3]: > 100 µM (inactive) | GI50 [4]: > 100 µM (inactive) | GI50 [5]: > 100 µM (inactive) | GI50 [6]: > 100 µM (inactive) | GI50 [7]: > 100 µM (inactive) | GI50 [8]: > 100 µM (inactive) | GI50 [9]: > 100 µM (inactive) | GI50 [10]: > 100 µM (inactive) | GI50 [11]: > 100 µM (inactive) | GI50 [12]: > 100 µM (inactive) | GI50 [13]: > 100 µM (inactive) | GI50 [14]: > 100 µM (inactive) | GI50 [16]: > 100 µM (inactive) | GI50 [17]: > 100 µM (inactive) | GI50 [18]: > 100 µM (inactive)
